Test results as given in patent publication US20240165072A1, “PHARMACEUTICAL COMPOSITION FOR ALLEVIATING OR TREATING HAIR LOSS THROUGH INFLAMMATION AMELIORATION OF HUMAN DERMAL PAPILLA CELLS AND PERIPHERAL CELLS AND INHIBITION OF 5A-REDUCTASE EXPRESSION” (BEN'S LAB. CO. LTD., priority 2021, published 2024).
In brackets after ≈: the same amount, converted by molar mass. Where two headings read alike, the source gives them in different places.

Key:
[1] = system: nitric oxide production in RAW 264.7 cells; experiment: Inhibitory effect on nitric oxide production in macrophages (Griess); assay type: cell-based, mouse; conditions: LPS 1 μg/ml, RAW 264.7 (FIG. 2); for inhibition of nitric oxide production, rank among the three samples: compared with kaempferol
Protocol: RAW 264.7 cells, which is a mouse macrophage cell line, were dispensed in a 24-well plate at a concentration of 2×10^5 cells/well, and cultured in an incubator at 37° C. under 5% CO2 for 24 hours. Epigallocatechin gallate (EGCG), genistein, and kaempferol, which were samples dissolved in DMSO, were added thereto according to the concentrations. At this time, the final concentration of DMSO was adjusted to 0.1%. After 30 minutes, LPS (lipopolysaccharide), which is an inflammation inducing substance, was added at a concentration of 1 μg/ml. After that, these were cultured in an incubator at 37° C. under 5% CO2 for 24 hours.
To quantify nitric oxide, 50 ? of Griess reagent A (5% phosphoric acid, 1% sulfanilamide) was added to 50 ? of the cell culture medium, and then the mixture was allowed to stand in a dark place for 5 minutes. 50 ? of Griess reagent B (0.1% N-(1-naphthyl)ethylenediamine dihydrochloride) was further added thereto, and allowed to react in a dark place for 5 minutes. The absorbance of this reactant was measured at 540 nm, which was compared with the standard curve to calculate the final concentration of nitrogen monoxide. A standard curve was obtained by reacting in the same manner as above using sodium nitrite instead of the cell culture medium and then measuring the absorbance.

[2] = system: TNF-α release in mouse macrophages RAW 264.7 cells; experiment: Inhibition of TNF-α secretion in macrophages (ELISA); assay type: cell-based; conditions: for IC50: Mus musculus, RAW264.7, LPS 100 ng/ml
Protocol: (§1) Mouse macrophage RAW 264.7 was dispensed into a 24-well plate at a concentration of 2×10^5 cells/well, and cultured in an incubator at 37° C. under 5% CO2 using a DMEM medium for 24 hours, and then samples were added according to the concentrations. Thirty minutes after addition of the sample, LPS (100 ng/ml) was added and cultured at 37° C. for 20 hours to collect the culture medium. The secreted IL-6 and TNF-α were respectively quantified using Mouse IL-6 ELISA kit (Invitrogen, Thermo Scientific) and Mouse TNF-α ELISA kit (Invitrogen, Thermo Scientific).

[3] = DPPH radical scavenging ability; assay type: biochemical; conditions: for DPPH radical scavenging ability (IC50): DPPH 300 μM, 30 minutes
Protocol: 100 ? l sample and the same amount of DPPH (2,2-diphenyl-1-picrylhydrazyl, 300 μM) solution were mixed in a 96-well plate, and reacted in a dark place for 30 minutes, and the absorbance was measured at 520 nm. The same amount of ethanol was reacted instead of the sample, and the blank value was calculated according to the following Equation.
DPPH radical scavenging ability (%)=[1−(A−B)/C]×100
wherein, A is the absorbance of the sample-added group (DPPH+sample); B is the absorbance of the ethanol-added group (sample+ethanol) instead of DPPH; and C is the absorbance of the ethanol-added group (DPPH+ethanol) instead of the sample.

[4] = ABTS radical scavenging ability; assay type: biochemical; conditions: for ABTS radical scavenging ability (IC50): 10 minutes, absorbance 734 nm
Protocol: The ABTS radical scavenging ability was calculated according to the following Equation.
ABTS radical scavenging ability (%)=[1−(AB)/C]×100
wherein, A is the absorbance of the sample-added group (ABTS+sample); B is the absorbance of the distilled water-added group (sample+distilled water) instead of ABTS; and C is the absorbance of the ethanol-added group (ABTS+ethanol) instead of the sample.

[5] = system: IL-6 release in mouse macrophages RAW 264.7 cells; experiment: Inhibition of IL-6 secretion in macrophages (ELISA); assay type: cell-based; conditions: for IC50: Mus musculus, RAW264.7, LPS 100 ng/ml
Protocol: as §1

5α-reductase type II = experiment: Inhibition of 5α-reductase type II expression in human dermal papilla cells (Western blot); assay type: cell-based; conditions: HFDPC; testosterone 10 μM; 72 hours; samples 10, 20 μg/ml; order genistein, kaempferol, EGCG (FIG. 4)
Protocol: The medium was then removed, and cells were collected by washing with PBS to extract proteins. To extract a protein, a lysis buffer for radio immunoprecipitation assay (RIPA) (sodium chloride 150 mM, sodium dodecyl sulfate (SDS) 0.1%, tris-hydrochloric acid (Tris-HCl: pH 7.5) 50 mM, ethylenediaminetetraacetic acid (EDTA) 2 mM, sodium deoxycholate 0.5%, Triton X-100 1%) was added and reacted, and then centrifuged at 10,000 rpm and 4° C. for 15 minutes to collect the supernatant. Then, the absorbance was measured at 595 nm to determine the protein concentration of each sample. These cell protein samples were mixed with sodium dodecyl sulfate (SDS) and a stain, and subjected to electrophoresis on a 12% SDS polyacrylamide gel.

[6] = system: histamine release in RBL-2H3 cells; experiment: Inhibition of histamine release in RBL-2H3 cells (Compound 48/80); assay type: cell-based, rat
Protocol: White rat basophil leukemia cells (RBL-2H3) were dispensed into a 24-well plate at a concentration of 1×10^5 cells/well, and cultured for 24 hours. Samples were added according to the concentrations. After 1 hour, Compound 48/80 (1 mg/ml), which triggers an allergic reaction, was added and cultured for 20 minutes. The well plate was allowed to stand in a refrigerator at 4° C. for 10 minutes, and then the medium was collected and the amount of histamine released into the medium was quantified using the Histamine ELISA kit (Neogen).

cyclooxygenase-2 (COX-2) = experiment: COX-2 expression inhibition in LPS-stimulated RAW 264.7 (Western blot); assay type: cell-based, mouse; conditions: 25 μg/ml, LPS 100 ng/ml, Western blot (FIG. 1)
Protocol: (§2) Mouse macrophage RAW 264.7 was dispensed into a 6-well plate at a concentration of 6×10^5 cells/well (number of cells per well), and cultured in an incubator at 37° C. under 5% CO2 using a DMEM Dulbecco's Modified Eagle's Medium (Sigma-Aldrich, Cat. No. D7777) for 24 hours, and then samples were added according to the concentrations.
(§3) Thirty minutes after the addition of the sample, lipopolysaccharide (LPS, 100 ng/ml) was added, and further cultured for 20 hours. After that, the medium was removed, washed with phosphate buffered saline (PBS) to collect the cells. In order to extract the protein, a lysis buffer for radioimmunoprecipitation assay (RIPA; sodium chloride 150 mM, sodium dodecyl sulfate (SDS) 0.1%, tris-hydrochloric acid (Tris-HCl: pH 7.5) 50 mM, ethylenediaminetetraacetic acid (EDTA) 2 mM, sodium deoxycholate 0.5%, Triton X-100 1%) was added and reacted, and then centrifuged at 10,000 rpm and 4° C. for 15 minutes to obtain the supernatant. The absorbance of the supernatant was then measured at 595 nm to determine the protein concentration of each sample. Then, the cell protein sample was mixed with sodium dodecyl sulfate (SDS) and a stain, and subjected to electrophoresis on a 12% SDS polyacrylamide gel. […]

[7] = system: IL-6 secretion in human follicle dermal papilla cells (HFDPC); conditions: TST or DHT 10 μM, 72 hours (FIG. 3)
Protocol: Human follicle dermal papilla cells (HFDPC) were dispensed into a 12-well plate at a concentration of 1×10^5 cells/well, and cultured for 24 hours. After that, the medium was replaced with Dulbecco's modified eagle's medium (DMEM) containing no fetal bovine serum (FBS), and subjected to starvation for 24 hours, and then samples were added according to the concentrations (2, 5, 10, 20 μg/ml). […] Then, the medium was collected, and IL-6 secreted in the medium was quantified using a Human IL-6 ELISA kit (Invitrogen, Thermo Scientific).

[8] = system: inducible nitric oxide synthase (iNOS); experiment: iNOS expression inhibition in LPS-stimulated RAW 264.7 (Western blot); assay type: cell-based, mouse; conditions: 25 μg/ml, LPS 100 ng/ml, Western blot (FIG. 1)
Protocol: as §2, §3

5-lipoxygenase (5-LO) = experiment: Inhibition of 5-lipoxygenase (5-LO) expression in RBL-2H3 (Western blot); assay type: cell-based, rat; conditions: Compound 48/80 1 mg/ml (FIG. 5)
Protocol: White rat basophilic leukemia cells (RBL-2H3) were dispensed into a 6-well plate at a concentration of 3×10^5 cells/well, and cultured in an incubator at 37° C. under 5% CO2 using a DMEM medium for 24 hours. Samples were added according to the concentrations, cultured for 24 hours, and then Compound 48/80 (1 mg/ml), which is substance that induces an allergic reaction, was added, and cultured for 1 hour. After that, the medium was removed, and washed with PBS to collect the cells, and then proteins were extracted. To extract protein, lysis buffer for radioimmunoprecipitation assay (RIPA; sodium chloride 150 mM, sodium dodecyl sulfate (SDS) 0.1%, tris-hydrochloric acid (Tris-HCl: pH 7.5) 50 mM, ethylenediaminetetraacetic acid (EDTA) 2 mM, sodium deoxycholate 0.5%, Triton X-100 1%) was added and reacted, and then centrifuged at 10,000 rpm and 4° C. for 15 minutes to take the supernatant. The absorbance thereof was then measured at 595 nm to determine the protein concentration of each sample. Then, the cell protein sample was mixed with sodium dodecyl sulfate (SDS) and a stain, and subjected to electrophoresis on a 12% SDS polyacrylamide gel. […]

[9] = Rattus norvegicus, Compound 48/80 1 mg/ml
[10] = highest inhibitory effect among EGCG, genistein, kaempferol

SMILES | inhibition of nitric oxide production, rank among the three samples [1] | DPPH radical scavenging ability (IC50) [3] [µg/mL] | ABTS radical scavenging ability (IC50) [4] [µg/mL] | inhibition of 5α-reductase type II expression (5α-reductase type II) | IC50 ([2]; 20 hours) [µg/mL] | IC50 ([5]; 20 hours) [µg/mL] | IC50 [6, 9] [µg/mL] | also measured
O=C(O[C@@H]1Cc2c(O)cc(O)cc2O[C@@H]1c1cc(O)c(O)c(O)c1)c1cc(O)c(O)c(O)c1 [Epigallocatechin gallate (EGCG), Epigallocatechin gallate] | next most inhibitory | 3.40 | 1.65 | effectively inhibited | – | – | – | TNF-α (IC50) ([2]; LPS 100 ng/ml, 20 hours): 83.68 ± 3.45 µg/mL; IL-6 (IC50) ([5]; LPS 100 ng/ml, 20 hours): 98.99 ± 10.87 µg/mL; histamine release inhibition (IC50) ([6]; Compound 48/80 1 mg/ml): 50.0 ± 9.80 µg/mL
O=c1c(-c2ccc(O)cc2)coc2cc(O)cc(O)c12 [Genistein] | slightly decreased the inhibitory power | – | – | effectively inhibited | 14.99 ± 0.11 (≈ 55.5 µM) | 8.92 ± 0.08 (≈ 33 µM) | > 1000 | DPPH radical scavenging ability ([3]; at 100 ppm): 5.18% at 100 ppm; ABTS radical scavenging ability ([4]; at 100 ppm): 5.29% at 100 ppm; inhibition of COX-2 expression (cyclooxygenase-2 (COX-2)): mostly inhibited the expression of COX-2; inhibition of the release of IL-6 by DHT or TST ([7]; 5 μg/ml): almost completely inhibited; inhibition at 1000 µg/mL ([6]; Rattus norvegicus, at 1000 μg/ml): 46%
O=c1c(O)c(-c2ccc(O)cc2)oc2cc(O)cc(O)c12 [Kaempferol] | – | 11.66 ± 0.30 | 6.18 ± 0.08 | effectively inhibited | 13.6 ± 0.72 (≈ 47.4 µM) | 5.93 ± 0.07 (≈ 20.7 µM) | 0.2 ± 0.02 (≈ 0.699 µM) | inhibition of iNOS expression [8]: inhibited the expression of iNOS to the control (CON) levels; inhibition of nitric oxide production ([1]; 20 μg/ml): inhibited almost to the control level; inhibition of TNF-α in macrophages (in words) [2, 10]: effectively inhibited; inhibition of 5-LO expression (5-lipoxygenase (5-LO)): effectively inhibits 5-LO expression at the lowest concentration; inhibition of IL-6 in macrophages (in words) [5, 10]: effectively inhibited; inhibition of the release of IL-6 by DHT or TST ([7]; 10 μg/ml): almost completely inhibited; inhibition at 0.2 µg/mL ([6]; Rattus norvegicus, at 0.2 μg/ml): > 50%
